Patent publication US11584760B2, “Dithio ETP derivatives” (priority 2016, dated 2023)

Tests used:
[1] = test system: DU145 (human prostate cancer); assay: in vitro cytotoxicity against DU145 cancer cell line; format: cell-based; conditions: DU145 cells; for in vitro cytotoxicity (activity against the cancer cell line): data shown in FIG. 2
Experimental: (§1) FIGS. 2A and 2B. In vitro cytotoxicity against two invasive cancer cell lines, DU145 (human prostate cancer) and A2058 (human melanoma) were determined for different analogs.
(§2) Four examples of compounds of structure II with R═—C(O)R or —C(O)OR′ were prepared as depicted in FIG. 2 and their in vitro cytotoxicity against two invasive cancer cell lines, DU145 (human prostate cancer) and A2058 (human melanoma) were determined.

[2] = test system: A2058 (human melanoma); assay: in vitro cytotoxicity against A2058 cancer cell line; format: cell-based; conditions: A2058 cells; for in vitro cytotoxicity (activity against the cancer cell line): data shown in FIG. 2
Experimental: as §1, §2

[3] = test system: Hut 78 cells (cutaneous T-cell lymphoma, CTCL); assay: CTCL tumor model: Hut 78 cells injected subcutaneously into NSG mice; format: in vivo; conditions: 20 mg/kg orally (gavage), 3 consecutive days/week; treatment started at tumor size approx. 200 mm^3; vs vehicle
Experimental: NSG (NOD. Cg-Prkdcscid II2rgtm1Wjl/SzJ) mice (5 to 7 weeks of age) were obtained from an-animal in-house breeding facility. The facility mice stock derived from mice obtained from Jackson Laboratory. All animal experiments were conducted in accordance with protocol approved by the City of Hope Beckman Research Institute IACUC.
CTCL tumor model: 3 million of Hut 78 cells in 100 μl (cells in PBS:Matrigel=1:1) injected subcutaneously.
The compound stock of 60 mg/ml was made in DMSO and diluted to 2 mg/ml in 30% Solutol. The compound was administered orally (by gavage) at 10 μl per gram of mice body weight in a dose of 20 mg/kg for 3 consecutive days/week.
100 μl of 3×10^6 Hut78 cells were injected subcutaneously into mice left flanks. The treatments were initiated when the tumor size reached approximately 200 mm^3. The compound or the vehicle alone were administered for 3 consecutive days/week.

CN1C(=O)[C@@]2(SC(=O)c3ccccc3)C[C@](C)(C#N)[C@H](c3ccc4c(c3)OCO4)N2C(=O)[C@]1(C)SC(=O)c1ccccc1 (relative stereo) [LEO-16-1836]
in vitro cytotoxicity (activity against the cancer cell line) [1]: good activity | in vitro cytotoxicity (activity against the cancer cell line) [2]: good activity

CC(=O)S[C@@]1(C)C(=O)N2[C@@H](c3ccc4c(c3)OCO4)[C@@](C)(C#N)C[C@]2(SC(C)=O)C(=O)N1C (relative stereo) [LEO-16-1833, Rel-S, S′-((3S,6S,7S,8aS)-6-(benzo[d][1,3]dioxol-5-yl)-7-cyano-2,3,7-trimethyl-1,4-dioxohexahydropyrrolo[1,2-c]pyrazine-3,8a(6H)-diyl) diethanethioate]
activity compared with the corresponding ETP structure I (p=2) ([1]; FIG. 2): nearly identical | in vitro cytotoxicity (activity against the cancer cell line) [1]: good activity | activity compared with the corresponding ETP structure I (p=2) ([2]; FIG. 2): nearly identical | in vitro cytotoxicity (activity against the cancer cell line) [2]: good activity

CC(=O)S[C@@]1(C)C(=O)N2[C@@H](c3ccc4c(c3)OCO4)[C@@](C)(C#N)C[C@]2(SC(C)=O)C(=O)N1C [LEO-16-1845, S,S′-((3S,6S,7S,8aS)-6-(benzo[d][1,3]dioxol-5-yl)-7-cyano-2,3,7-trimethyl-1,4-dioxohexahydropyrrolo[1,2-c]pyrazine-3,8a(6H)-diyl) diethanethioate]
inhibition of the tumor size [3]: 86.5%

CN1C(=O)[C@@]2(SC(=O)Cc3ccccc3)C[C@](C)(C#N)[C@H](c3ccc4c(c3)OCO4)N2C(=O)[C@]1(C)SC(=O)Cc1ccccc1 (relative stereo) [LEO-16-1835]
in vitro cytotoxicity (activity against the cancer cell line) [1]: good activity | in vitro cytotoxicity (activity against the cancer cell line) [2]: good activity
